According to patent publication US20260028365A1 (BIOGEN MA INC., priority 2022, published 2026):
Where two headings read alike, the source gives them in different places.

Assays:
JH2 domain of human Tyk2 = JH2 domain of human Tyk2 (Homo sapiens (Human), UniProt P29597); assay: JH2 Biochemical Assay (TR-FRET probe displacement); assay type: binding
Tyk2 = Tyk2 (Homo sapiens (Human), UniProt P29597); assay: pSTAT4 Cell Assay (MSD, NK92 cells); assay type: cell-based
[1] = JH2 domain of human Tyk2, TR-FRET probe displacement
[2] = TR-FRET probe displacement, JH2 domain of human Tyk2
[3] = TR-FRET probe displacement, JH2 domain

Chain of JH2 domain of human Tyk2 (P29597 575-876): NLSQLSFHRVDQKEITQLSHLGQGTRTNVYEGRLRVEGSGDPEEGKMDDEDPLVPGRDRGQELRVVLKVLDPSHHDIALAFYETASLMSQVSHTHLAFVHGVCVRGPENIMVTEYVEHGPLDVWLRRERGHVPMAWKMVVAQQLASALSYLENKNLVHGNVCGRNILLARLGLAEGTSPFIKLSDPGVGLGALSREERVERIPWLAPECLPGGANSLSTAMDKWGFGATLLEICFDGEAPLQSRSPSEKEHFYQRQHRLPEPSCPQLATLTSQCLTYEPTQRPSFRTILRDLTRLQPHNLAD
Chain of Tyk2 (P29597 whole entry, the tested form may be a part): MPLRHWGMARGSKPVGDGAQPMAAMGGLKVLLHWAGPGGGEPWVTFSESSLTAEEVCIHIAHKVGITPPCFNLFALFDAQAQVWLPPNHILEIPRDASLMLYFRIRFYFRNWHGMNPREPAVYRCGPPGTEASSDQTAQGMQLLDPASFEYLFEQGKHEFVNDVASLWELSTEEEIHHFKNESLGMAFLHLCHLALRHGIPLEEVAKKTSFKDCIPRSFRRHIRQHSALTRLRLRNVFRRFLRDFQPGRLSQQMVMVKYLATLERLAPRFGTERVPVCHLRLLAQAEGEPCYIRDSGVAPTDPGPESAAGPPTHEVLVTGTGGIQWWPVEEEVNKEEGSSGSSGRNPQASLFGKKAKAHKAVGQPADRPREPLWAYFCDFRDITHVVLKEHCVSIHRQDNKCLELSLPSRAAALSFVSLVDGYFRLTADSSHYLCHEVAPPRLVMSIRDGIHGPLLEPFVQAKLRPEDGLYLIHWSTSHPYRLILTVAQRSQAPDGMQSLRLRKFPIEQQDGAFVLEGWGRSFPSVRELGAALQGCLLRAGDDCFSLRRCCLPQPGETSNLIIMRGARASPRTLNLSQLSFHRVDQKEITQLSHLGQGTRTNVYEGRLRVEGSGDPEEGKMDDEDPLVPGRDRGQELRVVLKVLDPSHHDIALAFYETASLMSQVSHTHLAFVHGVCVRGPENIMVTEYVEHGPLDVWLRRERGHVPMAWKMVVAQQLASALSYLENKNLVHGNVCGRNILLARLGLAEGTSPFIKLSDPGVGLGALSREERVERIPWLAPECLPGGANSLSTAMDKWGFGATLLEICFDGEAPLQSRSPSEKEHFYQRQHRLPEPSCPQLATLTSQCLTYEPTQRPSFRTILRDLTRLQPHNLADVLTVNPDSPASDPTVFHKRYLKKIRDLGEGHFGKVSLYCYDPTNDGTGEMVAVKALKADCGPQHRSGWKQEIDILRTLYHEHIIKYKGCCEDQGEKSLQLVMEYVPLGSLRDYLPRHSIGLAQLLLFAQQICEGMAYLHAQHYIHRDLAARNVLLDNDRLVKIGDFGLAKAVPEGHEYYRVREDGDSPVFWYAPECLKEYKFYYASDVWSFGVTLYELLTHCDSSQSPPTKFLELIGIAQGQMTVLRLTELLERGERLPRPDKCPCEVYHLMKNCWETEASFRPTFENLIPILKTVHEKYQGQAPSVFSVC

| Structure (SMILES) | IC50 (JH2 domain of human Tyk2; [1]) [nM] | IC50 (Tyk2; MSD) [nM] | IC50 (JH2 domain of human Tyk2; [2]) [nM] | IC50 (JH2 domain of human Tyk2; [3]) [nM] | IC50 (Tyk2) [nM] |
| --- | --- | --- | --- | --- | --- |
| COc1cnc(NC(C)=O)cc1Nc1cc(-c2ccncc2F)nc(C(C)(F)F)n1 [Example 373, N-(4-((2-(1,1-difluoroethyl)-6-(3-fluoropyridin-4-yl)pyrimidin-4-yl)amino)-5-methoxypyridin-2-yl)acetamide] | ≤ 10 | 10 to 100 | – | – | – |
| COCCOc1cnc(NC(C)=O)cc1Nc1nc(C)cc(C(C)(F)F)n1 [Example 78] | – | 10 to 100 | ≤ 10 | – | – |
| CC(=O)Nc1cc(Nc2cccc(C(C)(F)F)n2)c(OCCO)cn1 [Example 140, N-(4-((6-(1,1-difluoroethyl)pyridin-2-yl)amino)-5-(2-hydroxyethoxy)pyridin-2-yl)acetamide] | – | ≤ 10 | ≤ 10 | – | – |
| CCn1ccc(-c2cnc(NC(C)=O)cc2Nc2ccnc(C(C)(F)F)n2)n1 [Example 706, N-(4-((2-(1,1-difluoroethyl)pyrimidin-4-yl)amino)-5-(1-ethyl-1H-pyrazol-3-yl)pyridin-2-yl)acetamide] | ≤ 10 | ≤ 10 | – | – | – |
| CC(=O)Nc1cc(Nc2cc(C)nc(C(C)(F)F)n2)c(OC[C@H]2C[C@H](F)C2)cn1 [Example 332, N-(4-((2-(1,1-difluoroethyl)-6-methylpyrimidin-4-yl)amino)-5-(((1r,3r)-3-fluorocyclobutyl)methoxy)pyridin-2-yl)acetamide] | – | 10 to 100 | ≤ 10 | – | – |
| CC(=O)Nc1cc(Nc2ccnc(C(C)(F)F)n2)c(-c2ccc(COC(F)F)cn2)cn1 [Example 265, N-(4′-((2-(1,1-difluoroethyl)pyrimidin-4-yl)amino)-5-((difluoromethoxy)methyl)-[2,3′-bipyridin]-6′-yl)acetamide] | – | ≤ 10 | ≤ 10 | – | – |
| CCc1cc(Nc2cc(NC(C)=O)ncc2-c2ccn(C)n2)nc(C(C)(F)F)n1 [Example 204, N-(4-((2-(1,1-difluoroethyl)-6-ethylpyrimidin-4-yl)amino)-5-(1-methyl-1H-pyrazol-3-yl)pyridin-2-yl)acetamide] | – | ≤ 10 | ≤ 10 | – | – |
| COCc1cnc(-c2cnc(NC(C)=O)cc2Nc2cc(C)nc(C(C)(F)F)n2)s1 [Example 231, N-(4-((2-(1,1-difluoroethyl)-6-methylpyrimidin-4-yl)amino)-5-(5-(methoxymethyl)thiazol-2-yl)pyridin-2-yl)acetamide] | – | ≤ 10 | ≤ 10 | – | – |
| CC(=O)Nc1cc(Nc2ccnc(C(C)(F)F)n2)c(-c2ccc(N3CCC4(COC4)C3)nn2)cn1 [Example 890, N-(5-(6-(2-oxa-6-azaspiro[3.4]octan-6-yl)pyridazin-3-yl)-4-((2-(1,1-difluoroethyl)pyrimidin-4-yl)amino)pyridin-2-yl)acetamide] | – | – | – | ≤ 10 | ≤ 10 |
| CC(=O)Nc1cc(Nc2cc(C)nc(C(C)(F)F)n2)c(-c2ncc(CN(C)C)s2)cn1 [Example 737, N-(4-((2-(1,1-difluoroethyl)-6-methylpyrimidin-4-yl)amino)-5-(5-((dimethylamino)methyl)thiazol-2-yl)pyridin-2-yl)acetamide] | ≤ 10 | ≤ 10 | – | – | – |
| CCc1noc(COc2cnc(NC(C)=O)cc2Nc2cc(C)nc(C(C)(F)F)n2)n1 [Example 331, N-(4-((2-(1,1-difluoroethyl)-6-methylpyrimidin-4-yl)amino)-5-((3-ethyl-1,2,4-oxadiazol-5-yl)methoxy)pyridin-2-yl)acetamide] | – | 100 to 1000 | 10 to 100 | – | – |
| CC(=O)Nc1cc(Nc2cc(C)nc(C(C)(F)F)n2)c(OCCc2cccnc2F)cn1 [Example 328, N-(4-((2-(1,1-difluoroethyl)-6-methylpyrimidin-4-yl)amino)-5-(2-(2-fluoropyridin-3-yl)ethoxy)pyridin-2-yl)acetamide] | – | ≤ 10 | ≤ 10 | – | – |
| COc1cncc(Oc2cnc(NC(C)=O)cc2Nc2cc(C)nc(C(C)(F)F)n2)n1 [Example 357, N-(4-((2-(1,1-difluoroethyl)-6-methylpyrimidin-4-yl)amino)-5-((6-methoxypyrazin-2-yl)oxy)pyridin-2-yl)acetamide] | – | ≥ 1000 | 10 to 100 | – | – |
| COc1cnc(NC(C)=O)cc1Nc1cc(C)nc(C23COC(C)(C2)C3)n1 [Example 449, N-(5-methoxy-4-((6-methyl-2-(1-methyl-2-oxabicyclo[2.1.1]hexan-4-yl)pyrimidin-4-yl)amino)pyridin-2-yl)acetamide] | 100 to 1000 | ≥ 1000 | – | – | – |
| COC(C)(C)c1cc(-c2cnc(NC(C)=O)cc2Nc2cc(C)nc(C(C)(F)F)n2)nn1C [Example 758, N-(4-((2-(1,1-difluoroethyl)-6-methylpyrimidin-4-yl)amino)-5-(5-(2-methoxypropan-2-yl)-1-methyl-1H-pyrazol-3-yl)pyridin-2-yl)acetamide] | – | – | – | ≤ 10 | ≤ 10 |
| CC(=O)Nc1cc(Nc2ccnc(C(C)(F)F)n2)c(-c2cc(N(C)C)ncn2)cn1 [Example 256, N-(4-((2-(1,1-difluoroethyl)pyrimidin-4-yl)amino)-5-(6-(dimethylamino)pyrimidin-4-yl)pyridin-2-yl)acetamide] | – | ≥ 1000 | 10 to 100 | – | – |
| CC(=O)Nc1cc(Nc2cc(C)nc(C(C)(F)F)n2)c(-c2ccsn2)cn1 [Example 761, N-(4-((2-(1,1-difluoroethyl)-6-methylpyrimidin-4-yl)amino)-5-(isothiazol-3-yl)pyridin-2-yl)acetamide] | – | – | – | ≤ 10 | ≥ 1000 |
| CC(=O)Nc1cc(Nc2cc(C)nc(C(C)(F)F)n2)c(OCCF)cn1 [Example 404, N-(4-((2-(1,1-difluoroethyl)-6-methylpyrimidin-4-yl)amino)-5-(2-fluoroethoxy)pyridin-2-yl)acetamide] | ≤ 10 | 10 to 100 | – | – | – |
| CC(=O)Nc1cc(Nc2ccnc(C(C)(F)F)n2)c(-c2ccc(N(C)C)nn2)cn1 [Example 841, N-(4-((2-(1,1-difluoroethyl)pyrimidin-4-yl)amino)-5-(6-(dimethylamino)pyridazin-3-yl)pyridin-2-yl)acetamide] | – | – | – | ≤ 10 | ≤ 10 |
| CC(=O)Nc1cc(Nc2cc(C)nc(C(C)(F)F)n2)c(-c2cnc(CN3CCOCC3)cn2)cn1 [Example 793, N-(4-((2-(1,1-difluoroethyl)-6-methylpyrimidin-4-yl)amino)-5-(5-(morpholinomethyl)pyrazin-2-yl)pyridin-2-yl)acetamide] | – | – | – | ≤ 10 | ≤ 10 |
| COc1cccc(-c2cnc(NC(C)=O)cc2Nc2cc(C)nc(C(C)(F)F)n2)n1 [Example 635, N-(4′-((2-(1,1-difluoroethyl)-6-methylpyrimidin-4-yl)amino)-6-methoxy-[2,3′-bipyridin]-6′-yl)acetamide] | ≤ 10 | ≤ 10 | – | – | – |
| CC(=O)Nc1cc(Nc2cc(C)nc(C(C)(F)F)n2)c(-c2cccc(OC(F)F)n2)cn1 [Example 150, N-(4′-((2-(1,1-difluoroethyl)-6-methylpyrimidin-4-yl)amino)-6-(difluoromethoxy)-[2,3′-bipyridin]-6′-yl)acetamide] | – | ≤ 10 | ≤ 10 | – | – |
| CCn1ncc(-c2cnc(NC(C)=O)cc2Nc2ccnc(C(C)(F)F)n2)n1 [Example 709, N-(4-((2-(1,1-difluoroethyl)pyrimidin-4-yl)amino)-5-(2-ethyl-2H-1,2,3-triazol-4-yl)pyridin-2-yl)acetamide] | ≤ 10 | 10 to 100 | – | – | – |
